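Each compound was tested at five concentrations against cells in 96-well plates for 48 hours. GI50 is the concentration that inhibits growth by half. Definition used: TGI = concentration required for complete inhibition of growth.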
Columns and labels:
Assay in all cases: DTP human tumour cell line panel, 48 h
EKVX NSCLC = test system: EKVX NSCLC
BT-549 breast = test system: BT-549 breast
RPMI-8226 leukemia = test system: RPMI-8226 leukemia
IGROV1 ovarian = test system: IGROV1 ovarian
SK-OV-3 ovarian = test system: SK-OV-3 ovarian
HOP-92 NSCLC = test system: HOP-92 NSCLC
SNB-75 CNS = test system: SNB-75 CNS
ACHN renal = test system: ACHN renal
HS 578T breast = test system: HS 578T breast
OVCAR-5 ovarian = test system: OVCAR-5 ovarian
RXF 393 renal = test system: RXF 393 renal
MCF7 breast = test system: MCF7 breast
HL-60(TB) leukemia = test system: HL-60(TB) leukemia
SF-539 CNS = test system: SF-539 CNS
M14 melanoma = test system: M14 melanoma
U251 CNS = test system: U251 CNS
DU-145 prostate = test system: DU-145 prostate
SK-MEL-2 melanoma = test system: SK-MEL-2 melanoma
UACC-62 melanoma = test system: UACC-62 melanoma
HT29 colon = test system: HT29 colon
NCI-H23 lung = test system: NCI-H23 lung
SK-MEL-5 melanoma = test system: SK-MEL-5 melanoma
NCI-H226 lung = test system: NCI-H226 lung
UACC-257 melanoma = test system: UACC-257 melanoma
HCT-15 colon = test system: HCT-15 colon
CAKI-1 renal = test system: CAKI-1 renal
OVCAR-4 ovarian = test system: OVCAR-4 ovarian
SK-MEL-28 melanoma = test system: SK-MEL-28 melanoma
SN12C renal = test system: SN12C renal
HCT-116 colon = test system: HCT-116 colon
OVCAR-8 ovarian = test system: OVCAR-8 ovarian
TK-10 renal = test system: TK-10 renal
UO-31 renal = test system: UO-31 renal
K-562 leukemia = test system: K-562 leukemia
SNB-19 CNS = test system: SNB-19 CNS
LOX IMVI melanoma = test system: LOX IMVI melanoma
A498 renal = test system: A498 renal
MDA-MB-231 breast = test system: MDA-MB-231 breast
PC-3 prostate = test system: PC-3 prostate
SW-620 colon = test system: SW-620 colon
SF-268 CNS = test system: SF-268 CNS
NCI/ADR-RES ovarian = test system: NCI/ADR-RES ovarian
SR leukemia = test system: SR leukemia
OVCAR-3 ovarian = test system: OVCAR-3 ovarian
NCI-H522 lung = test system: NCI-H522 lung
NCI-H460 lung = test system: NCI-H460 lung
MOLT-4 leukemia = test system: MOLT-4 leukemia
KM12 colon = test system: KM12 colon
CCRF-CEM leukemia = test system: CCRF-CEM leukemia
COLO 205 colon = test system: COLO 205 colon
A549 NSCLC = test system: A549 NSCLC
MDA-MB-435 = test system: MDA-MB-435
786-0 renal = test system: 786-0 renal
HCC-2998 colon = test system: HCC-2998 colon
SF-295 CNS = test system: SF-295 CNS
HOP-62 NSCLC = test system: HOP-62 NSCLC
T-47D breast = test system: T-47D breast
MALME-3M melanoma = test system: MALME-3M melanoma

Structure (SMILES): NCCCn1c2c(c3ccc([N+](=O)[O-])cc3c1=O)C(=O)c1ccccc1-2
- GI50 (EKVX NSCLC): 317 nM
- TGI (EKVX NSCLC): 1690 nM
- GI50 (BT-549 breast): 235 nM
- TGI (BT-549 breast): 881 nM
- GI50 (RPMI-8226 leukemia): 28.4 nM
- GI50 (IGROV1 ovarian): 215 nM
- TGI (IGROV1 ovarian): > 50000 nM
- GI50 (SK-OV-3 ovarian): 631 nM
- TGI (SK-OV-3 ovarian): 2280 nM
- GI50 (HOP-92 NSCLC): 340 nM
- TGI (HOP-92 NSCLC): 1720 nM
- GI50 (SNB-75 CNS): 835 nM
- TGI (SNB-75 CNS): 2670 nM
- GI50 (ACHN renal): 19.8 nM
- TGI (ACHN renal): 88.5 nM
- GI50 (HS 578T breast): 657 nM
- TGI (HS 578T breast): 2290 nM
- GI50 (OVCAR-5 ovarian): 414 nM
- TGI (OVCAR-5 ovarian): 1300 nM
- GI50 (RXF 393 renal): 709 nM
- TGI (RXF 393 renal): 2100 nM
- GI50 (MCF7 breast): 12.2 nM
- TGI (MCF7 breast): > 50000 nM
- GI50 (HL-60(TB) leukemia): 31 nM
- TGI (HL-60(TB) leukemia): > 19300 nM
- GI50 (SF-539 CNS): 138 nM
- TGI (SF-539 CNS): 596 nM
- GI50 (M14 melanoma): 161 nM
- TGI (M14 melanoma): 1060 nM
- GI50 (U251 CNS): 5 nM
- TGI (U251 CNS): 53.4 nM
- GI50 (DU-145 prostate): 45.5 nM
- TGI (DU-145 prostate): 474 nM
- GI50 (SK-MEL-2 melanoma): 1600 nM
- TGI (SK-MEL-2 melanoma): > 50000 nM
- GI50 (UACC-62 melanoma): 102 nM
- TGI (UACC-62 melanoma): 431 nM
- GI50 (HT29 colon): 78.5 nM
- TGI (HT29 colon): 1140 nM
- GI50 (NCI-H23 lung): 78 nM
- TGI (NCI-H23 lung): 2420 nM
- GI50 (SK-MEL-5 melanoma): 95.6 nM
- TGI (SK-MEL-5 melanoma): 479 nM
- GI50 (NCI-H226 lung): 15.1 nM
- TGI (NCI-H226 lung): 118 nM
- GI50 (UACC-257 melanoma): 495 nM
- TGI (UACC-257 melanoma): > 16600 nM
- GI50 (HCT-15 colon): 29 nM
- TGI (HCT-15 colon): 810 nM
- GI50 (CAKI-1 renal): 27.6 nM
- TGI (CAKI-1 renal): 494 nM
- GI50 (OVCAR-4 ovarian): 116 nM
- TGI (OVCAR-4 ovarian): 470 nM
- GI50 (SK-MEL-28 melanoma): 497 nM
- GI50 (SN12C renal): 29.7 nM
- TGI (SN12C renal): 160 nM
- GI50 (HCT-116 colon): 20.5 nM
- GI50 (OVCAR-8 ovarian): 114 nM
- TGI (OVCAR-8 ovarian): 770 nM
- GI50 (TK-10 renal): 212 nM
- TGI (TK-10 renal): 1830 nM
- GI50 (UO-31 renal): 110 nM
- TGI (UO-31 renal): > 50000 nM
- GI50 (K-562 leukemia): 33.5 nM
- GI50 (SNB-19 CNS): 72.1 nM
- TGI (SNB-19 CNS): 7050 nM
- GI50 (LOX IMVI melanoma): 17.3 nM
- TGI (LOX IMVI melanoma): 225 nM
- GI50 (A498 renal): 277 nM
- TGI (A498 renal): 1450 nM
- GI50 (MDA-MB-231 breast): 136 nM
- TGI (MDA-MB-231 breast): 472 nM
- GI50 (PC-3 prostate): 326 nM
- TGI (PC-3 prostate): 3610 nM
- GI50 (SW-620 colon): 21.5 nM
- TGI (SW-620 colon): 1240 nM
- GI50 (SF-268 CNS): 240 nM
- TGI (SF-268 CNS): > 12200 nM
- GI50 (NCI/ADR-RES ovarian): 427 nM
- TGI (NCI/ADR-RES ovarian): 2410 nM
- GI50 (SR leukemia): 5 nM
- TGI (SR leukemia): > 50000 nM
- GI50 (OVCAR-3 ovarian): 96.6 nM
- TGI (OVCAR-3 ovarian): 525 nM
- GI50 (NCI-H522 lung): 462 nM
- TGI (NCI-H522 lung): > 50000 nM
- GI50 (NCI-H460 lung): 8.87 nM
- TGI (NCI-H460 lung): > 50000 nM
- GI50 (MOLT-4 leukemia): 114 nM
- TGI (MOLT-4 leukemia): > 50000 nM
- GI50 (KM12 colon): 89.2 nM
- TGI (KM12 colon): 1230 nM
- GI50 (CCRF-CEM leukemia): 135 nM
- TGI (CCRF-CEM leukemia): > 50000 nM
- GI50 (COLO 205 colon): 330 nM
- TGI (COLO 205 colon): 3820 nM
- GI50 (A549 NSCLC): 23.3 nM
- GI50 (MDA-MB-435): 322 nM
- TGI (MDA-MB-435): 2080 nM

Structure (SMILES): O=C1c2cc3c(cc2-c2c1c1cc(Cl)c(Cl)cc1c(=O)n2C[C@H](O)CO)OCO3
- GI50 (786-0 renal): < 10 nM
- TGI (786-0 renal): 187 nM
- GI50 (HCC-2998 colon): 45.1 nM
- TGI (HCC-2998 colon): 3290 nM
- GI50 (EKVX NSCLC): 24.3 nM
- TGI (EKVX NSCLC): 19000 nM
- GI50 (BT-549 breast): < 10 nM
- TGI (BT-549 breast): 455 nM
- GI50 (RPMI-8226 leukemia): < 10 nM
- TGI (RPMI-8226 leukemia): 188 nM
- GI50 (IGROV1 ovarian): 21.9 nM
- TGI (IGROV1 ovarian): 2080 nM
- GI50 (SK-OV-3 ovarian): < 10 nM
- TGI (SK-OV-3 ovarian): 53.6 nM
- GI50 (SNB-75 CNS): < 10 nM
- TGI (SNB-75 CNS): 78.6 nM
- GI50 (ACHN renal): < 10 nM
- TGI (ACHN renal): 12.8 nM
- GI50 (HS 578T breast): 291 nM
- TGI (HS 578T breast): 32900 nM
- GI50 (SF-295 CNS): < 10 nM
- GI50 (OVCAR-5 ovarian): 18.4 nM
- TGI (OVCAR-5 ovarian): 955 nM
- GI50 (RXF 393 renal): < 10 nM
- TGI (RXF 393 renal): 37.8 nM
- GI50 (HL-60(TB) leukemia): < 10 nM
- TGI (HL-60(TB) leukemia): 10500 nM
- GI50 (SF-539 CNS): < 10 nM
- TGI (SF-539 CNS): 17.5 nM
- GI50 (HOP-62 NSCLC): < 10 nM
- TGI (HOP-62 NSCLC): 32.6 nM
- GI50 (U251 CNS): < 10 nM
- TGI (U251 CNS): 36.8 nM
- GI50 (DU-145 prostate): < 10 nM
- TGI (DU-145 prostate): 1800 nM
- GI50 (SK-MEL-2 melanoma): 48.8 nM
- TGI (SK-MEL-2 melanoma): 374 nM
- GI50 (UACC-62 melanoma): < 10 nM
- TGI (UACC-62 melanoma): 12.6 nM
- GI50 (NCI-H23 lung): < 10 nM
- TGI (NCI-H23 lung): 44.8 nM
- GI50 (SK-MEL-5 melanoma): < 10 nM
- TGI (SK-MEL-5 melanoma): 13.4 nM
- GI50 (NCI-H226 lung): < 10 nM
- TGI (NCI-H226 lung): 24.8 nM
- GI50 (UACC-257 melanoma): 12.3 nM
- TGI (UACC-257 melanoma): 217 nM
- GI50 (HCT-15 colon): 12.7 nM
- TGI (HCT-15 colon): 14300 nM
- GI50 (SK-MEL-28 melanoma): 42.9 nM
- TGI (SK-MEL-28 melanoma): 8620 nM
- GI50 (SN12C renal): < 10 nM
- TGI (SN12C renal): 122 nM
- GI50 (OVCAR-8 ovarian): < 10 nM
- TGI (OVCAR-8 ovarian): 1160 nM
- GI50 (TK-10 renal): 57.8 nM
- TGI (TK-10 renal): 934 nM
- GI50 (T-47D breast): < 10 nM
- TGI (T-47D breast): 33.4 nM
- GI50 (K-562 leukemia): < 10 nM
- TGI (K-562 leukemia): > 100000 nM
- GI50 (SNB-19 CNS): < 10 nM
- TGI (SNB-19 CNS): 2790 nM
- GI50 (LOX IMVI melanoma): < 10 nM
- TGI (LOX IMVI melanoma): 11.7 nM
- GI50 (MALME-3M melanoma): 15.4 nM
- TGI (MALME-3M melanoma): 156 nM
- GI50 (A498 renal): < 10 nM
- TGI (A498 renal): 32 nM
- GI50 (MDA-MB-231 breast): 79.6 nM
- TGI (MDA-MB-231 breast): 1660 nM
- GI50 (SW-620 colon): < 10 nM
- TGI (SW-620 colon): 2080 nM
- GI50 (SF-268 CNS): < 10 nM
- TGI (SF-268 CNS): 2700 nM
- GI50 (NCI/ADR-RES ovarian): < 10 nM
- TGI (NCI/ADR-RES ovarian): 18.4 nM
- GI50 (SR leukemia): < 10 nM
- TGI (SR leukemia): 3780 nM
- GI50 (OVCAR-3 ovarian): 15.7 nM
- TGI (OVCAR-3 ovarian): 76.9 nM
- GI50 (NCI-H522 lung): < 10 nM
- TGI (NCI-H522 lung): 122 nM
- GI50 (NCI-H460 lung): < 10 nM
- TGI (NCI-H460 lung): 26.8 nM
- GI50 (CCRF-CEM leukemia): < 10 nM
- TGI (CCRF-CEM leukemia): 19100 nM
- GI50 (COLO 205 colon): < 10 nM
- TGI (COLO 205 colon): 291 nM
- GI50 (A549 NSCLC): < 10 nM
- TGI (A549 NSCLC): 253 nM
- GI50 (MDA-MB-435): 11.1 nM
- TGI (MDA-MB-435): 168 nM

From PubChem BioAssay (NCI)
